What was measured:
[1] = target: T1, human P2X2 receptor (Homo sapiens, UniProt Q9UBL9); assay: Suramin inhibition of ATP-stimulated P2X2 gating in yeast, GCaMP; format: cell-based; conditions: suramin pre-equilibrated 10 min, 5 μM ATP injected, n = 4; read-out: IC50 (second value in brackets) (converted)
T1 construct: expressed in transfected cells; host or cells: S. cerevisiae BY4741 background, P2X2 genome-integrated under a galactose-inducible promoter
T1 sequence (Q9UBL9 1-471): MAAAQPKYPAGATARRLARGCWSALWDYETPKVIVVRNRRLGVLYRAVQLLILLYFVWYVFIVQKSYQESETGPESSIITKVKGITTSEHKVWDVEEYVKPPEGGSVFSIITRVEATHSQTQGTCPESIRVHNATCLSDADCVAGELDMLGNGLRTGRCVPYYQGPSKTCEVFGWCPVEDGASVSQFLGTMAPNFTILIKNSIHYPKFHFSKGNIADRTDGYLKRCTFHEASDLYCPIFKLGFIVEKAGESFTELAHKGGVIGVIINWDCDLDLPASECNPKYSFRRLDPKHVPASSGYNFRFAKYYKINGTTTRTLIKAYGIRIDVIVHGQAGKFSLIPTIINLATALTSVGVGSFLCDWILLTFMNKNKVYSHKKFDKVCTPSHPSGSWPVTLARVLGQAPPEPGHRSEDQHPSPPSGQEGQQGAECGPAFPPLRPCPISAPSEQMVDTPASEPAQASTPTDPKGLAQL
Description: Genetic knockouts of the calnexin homolog (ΔCne1p) and vacuolar calcium transporter (Δ Vcx1p) (n = 3) were compared to the WT yeast strain (n = 2). […] Statistical analysis was performed using one-way ANOVA with Dunnett’s multiple comparisons test where ∗∗ is p ≤ 0.01. […] Yeast were injected with ATP at 21 s and onset rates from the last six points (40–48 s) were used for calculating the dose response in (D). E and F, kinetic and dose–response measurements of P2X2 with the GCaMP reporter with ATP (n = 4), partial agonist BzATP (n = 3), and agonist 2-chloro-ATP (n = 4). Figures (D and F) share the figure legend with (C). […] Suramin was pre-equilibrated with P2X2-yeast for 10 min and 5 μM ATP was injected. […]
GCaMP assays were performed as follows. […] Cells were loaded onto a black, clear bottom microplate and imaged on a FlexStation3 plate reader. […] Fluorescence was measured with an excitation at 485 nm, and emission 525 nm. […] For strains with mScarlet, fluorescence was read with excitation 570 nm/emission 610 nm. Slopes were calculated from the last 6 points of measurement and were normalized to the positive control samples. Any replicate in which the mScarlet value was measured to be over 2 standard deviations less than the mean for that set was discarded from further analysis.

[2] = test system: P2X2; set-up: method as in PMID 12885270; conditions: read-out: reported IC50 values; cited from earlier work
[3] = target: T1, human P2X2 receptor; assay: GCaMP calcium assay of P2X2 expressed in yeast S. cerevisiae, agonist response; format: cell-based; conditions: yeast; for EC50: read-out: EC50
Excerpt: Although P2X receptors are expressed in many eukaryotic organisms including some fungi ([24]), they are not present in S. cerevisiae. For recombinant expression to yield functional P2X channels, receptor proteins must be correctly folded, assembled into trimers, and efficiently trafficked to the plasma membrane. To assess whether P2X ion channels could functionally gate in S. cerevisiae the canonical isoforms of P2X1-7 were co-expressed with aequorin, a calcium-activated photoprotein from the jellyfish Aequorea victoria.
Genetic knockouts of the calnexin homolog (ΔCne1p) and vacuolar calcium transporter (Δ Vcx1p) (n = 3) were compared to the WT yeast strain (n = 2). […] Statistical analysis was performed using one-way ANOVA with Dunnett’s multiple comparisons test where ∗∗ is p ≤ 0.01. […] Yeast were injected with ATP at 21 s and onset rates from the last six points (40–48 s) were used for calculating the dose response in (D). E and F, kinetic and dose–response measurements of P2X2 with the GCaMP reporter with ATP (n = 4), partial agonist BzATP (n = 3), and agonist 2-chloro-ATP (n = 4). Figures (D and F) share the figure legend with (C). […] Suramin was pre-equilibrated with P2X2-yeast for 10 min and 5 μM ATP was injected.
To expand the assay throughput to accommodate several 96-well plates at a time, we required the acquisition of short-duration signals. Since GCaMP signals are typically measured in terms of ΔF/F0, where ΔF is Fmax-Fmin, and since the signal takes several minutes to reach Fmax, we instead attempted to correlate the rate of signal onset (rather than its amplitude) with channel activity.
Having optimized our yeast strains and assay throughput, we sought to further validate the function of human P2X2 in the yeast host.
GCaMP assays were performed as follows. P2X2 GCaMP strains were designed with a bi-cistronic reporter, in which the GCaMP protein was followed by a 2A peptide and a mScarletI reporter ([53]). The co-translated mScarletI was designed to act as a control for plasmid loss, GCaMP breakage via nonsense mutation, and contamination. […] P2X2-GCaMP strains were cultured and induced as previously described. Samples were induced for 24 h to allow for the accumulation of the mature GCaMP protein. Cells were washed three times in 0.1 M MES/Tris buffer and resuspended with MES/Tris with supplemental calcium. Cells were loaded onto a black, clear bottom microplate and imaged on a FlexStation3 plate reader. Samples were imaged in “flex” mode. Samples were imaged for 48 s at an interval of 1.6 s. Fluorescence was measured with an excitation at 485 nm, and emission 525 nm. At the 21 s mark, 100 μl ligand solution was transferred to the cells. For strains with mScarlet, fluorescence was read with excitation 570 nm/emission 610 nm. Slopes were calculated from the last 6 points of measurement and were normalized to the positive control samples. Any replicate in which the mScarlet value was measured to be over 2 standard deviations less than the mean for that set was discarded from further analysis.

[4] = test system: P2X2; conditions: mammalian cells; cited from earlier work
[5] = kinetic and dose-response GCaMP assay, Fig. 1E-F

| IC50 [1] | Compound | IC50 [2] | EC50 [3, 5] | EC50 [4] | peak amplitudes relative to the canonical ATP ligand ([3]; GCaMP kinetic assay) | pEC50 [3, 5] |
| --- | --- | --- | --- | --- | --- | --- |
| 26900 nM | Cc1ccc(C(=O)Nc2ccc(S(=O)(=O)O)c3cc(S(=O)(=O)O)cc(S(=O)(=O)O)c23)cc1NC(=O)c1cccc(NC(=O)Nc2cccc(C(=O)Nc3cc(C(=O)Nc4ccc(S(=O)(=O)O)c5cc(S(=O)(=O)O)cc(S(=O)(=O)O)c45)ccc3C)c2)c1 [suramin] | 10000 nM | – | – | – | – |
| – | Nc1nc(Cl)nc2c1ncn2[C@@H]1O[C@H](COP(=O)(O)OP(=O)(O)OP(=O)(O)O)[C@@H](O)[C@H]1O [2-Chloro ATP, 2-Chloro-Adenosinetriphosphate] | – | 1000 nM | 2500 nM | – | – |
| – | 2′(3′)-O-(4-Benzoylbenzoyl)adenosine-5′-triphosphate [BzATP] | – | 1280 nM | – | less than 50% | 5.89 ± 0.096 M |
